Tests used:
Assay type in all cases: cell-based
[1] = tested on: S. aureus ATCC 33591 (methicillin-resistant); experiment: broth microdilution MIC assay, S. aureus ATCC 33591; details: Staphylococcus aureus, ATCC 33591 / MRSA; Table 3; S. aureus 33591 (MRSA); read-out: S. aureus 33591 (MRSA) MIC
Description: (§1) To determine the ability of test compounds to potentiate the inhibition of the growth of bacterial strains, classic cell-based broth microdilution MIC assays were employed. MIC assays are performed according to CLSI methods except where otherwise noted (CLSI, 2011 and CLSI, 2009). The reference strains S. aureus ATCC 29213 (methicillin sensitive), S. aureus ATCC 33591 (methicillin-resistant), E. coli ATCC 25922 (wild-type/QC strain), P. aeruginosa ATCC 27853 (wild-type/QC strain), and the clinical isolate P. aeruginosa PA 8 were used to determine the ability of the exemplary carbapenem compounds to inhibit bacterial growth. An expanded panel of methicillin resistance S. aureus (MRSA) and Pseudomonas was also used to determine the ability of exemplary carbapenem compounds to inhibit bacterial growth across a broader representation of those species. To determine activity in MRSA and in addition to S. aureus ATCC 33591, S. aureus USA 300, USA 400 and USA 600, some of the most common clones found to cause human infection, were also used. To further gauge the impact on the carbapenem compounds due to various resistance mechanisms in Pseudomonas, the following strains were included: P. aeruginosa 35151 (hyper-permeable strain), P. aeruginosa AmexAB-OprM (an efflux pump knockout), and P. aeruginosa PA 3 (a clinical isolate of reduced carbapenem susceptibility). Briefly, cryo-preserved bacterial cultures of clinical strains are streaked for isolation on appropriate agar medium, in this case Mueller Hinton II agar. Following incubation to allow formation of colonies, these plates are sealed with parafilm and stored refrigerated for up to two weeks. For preparation of assay inocula and to ensure low variability, at least 5 colonies are picked from the agar plates with an inoculating loop and aseptically transferred to a culture tube containing 3 mL of Mueller-Hinton Broth (supplemented with divalent cations to required levels based on Manufacturers' specification). The broth culture is grown for 3-5 hours at 37° C. with shaking at 200 rpm. Meanwhile, 2-fold serial dilutions of test compounds are conducted in a 96 well plate with a final volume of 75 μL per well at 2-fold the final desired concentration. After the dilution plates are set up the growing cultures are then diluted in a cuvette containing MH II broth and the optical density is measured at 600 nm. Inocula are diluted such that 75 μL of this culture in Mueller-Hinton Broth results in a starting bacterial concentration of 5×10^5 CFU/mL when added to the dilution plates. The plates are incubated 16-20 hours at 37° C. The MIC is read visually as the lowest concentration well with no bacterial growth.
(§2) Representative results are shown in Tables 3, 4, and 5 where A represents an MIC>32 μg/mL, B represents an MIC between 8 and 32 μg/mL inclusive, C represents an MIC between 1 and 4 μg/mL inclusive, and D represents an MIC of <1 μg/mL. NT=Not Tested.

[2] = tested on: E. coli ATCC 25922 (wild-type/QC strain); experiment: broth microdilution MIC assay, E. coli ATCC 25922; details: Escherichia coli, ATCC25922; Table 3; E. coli 25922; read-out: E. coli 25922 MIC
Description: as §1, §2

[3] = tested on: P. aeruginosa ATCC 27853 (wild-type/QC strain); experiment: broth microdilution MIC assay, P. aeruginosa ATCC 27853; details: Pseudomonas aeruginosa, ATCC27853; Table 3; P. aeruginosa 27853; read-out: P. aeruginosa 27853 MIC
Description: as §1, §2

[4] = tested on: clinical isolate P. aeruginosa PA 8; experiment: broth microdilution MIC assay, P. aeruginosa PA 8; details: Pseudomonas aeruginosa; Table 3; P. aeruginosa PA8
Description: as §1, §2

| Structure (SMILES) | MIC [1] [µg/mL] | MIC [2] [µg/mL] | MIC [3] [µg/mL] | MIC [4] [µg/mL] |
| --- | --- | --- | --- | --- |
| CNC[C@H]1CC[C@H](CN2CC[C@@H](SC3=C(C(=O)O)N4C(=O)[C@H]([C@@H](C)O)[C@H]4[C@H]3C)C2)CC1 [Example 18, (4R,5S,6S)-6-((R)-1-hydroxyethyl)-4-methyl-3-(((R)-1-(((1r,4R)-4-((methylamino)methyl)cyclohexyl)methyl)pyrrolidin-3-yl)thio)-7-oxo-1-azabicyclo[3.2.0]hept-2-ene-2-carboxylic acid] | 8 to 32 | < 1 | 1 to 4 | 1 to 4 |
| C[C@@H](O)[C@H]1C(=O)N2C(C(=O)O)=C(S[C@@H]3CCN(Cc4ccc(CN)c(CN)c4)C3)[C@H](C)[C@H]12 [Example 31, (4R,5S,6S)-3-(((R)-1-(3,4-bis(aminomethyl)benzyl)pyrrolidin-3-yl)thio)-6-((R)-1-hydroxyethyl)-4-methyl-7-oxo-1-azabicyclo[3.2.0]hept-2-ene-2-carboxylic acid] | 1 to 4 | < 1 | 8 to 32 | 8 to 32 |
| C[C@@H](O)[C@H]1C(=O)N2C(C(=O)O)=C(S[C@@H]3CCN(C4CCC(NCCCB(O)O)CC4)C3)[C@H](C)[C@H]12 (stereo partly drawn) [Example 3, (4R,5S,6S)-3-(((R)-1-(4-((3-boronopropyl)amino)cyclohexyl)pyrrolidin-3-yl)thio)-6-((R)-1-hydroxyethyl)-4-methyl-7-oxo-1-azabicyclo[3.2.0]hept-2-ene-2-carboxylic acid] | 8 to 32 | < 1 | 8 to 32 | 8 to 32 |
| C[C@@H](O)[C@H]1C(=O)N2C(C(=O)O)=C(S[C@@H]3CCN(C4CCN(CCN)CC4)C3)[C@H](C)[C@H]12 [Example 27, (4R,5S,6S)-3-(((R)-1-(1-(2-aminoethyl)piperidin-4-yl)pyrrolidin-3-yl)thio)-6-((R)-1-hydroxyethyl)-4-methyl-7-oxo-1-azabicyclo[3.2.0]hept-2-ene-2-carboxylic acid] | 8 to 32 | < 1 | 1 to 4 | 1 to 4 |
| C[C@@H](O)[C@H]1C(=O)N2C(C(=O)O)=C(S[C@@H]3CCN(CC4CCN(CCN)CC4)C3)[C@H](C)[C@H]12 [Example 26, (4R,5S,6S)-3-(((R)-1-((1-(2-aminoethyl)piperidin-4-yl)methyl)pyrrolidin-3-yl)thio)-6-((R)-1-hydroxyethyl)-4-methyl-7-oxo-1-azabicyclo[3.2.0]hept-2-ene-2-carboxylic acid] | > 32 | < 1 | 1 to 4 | 1 to 4 |
| CC1CC(CN2CC[C@@H](SC3=C(C(=O)O)N4C(=O)[C@H]([C@@H](C)O)[C@H]4[C@H]3C)C2)CCN1 (stereo partly drawn) [Example 28, (4R,5S,6S)-6-((R)-1-hydroxyethyl)-4-methyl-3-(((3R)-1-((2-methylpiperidin-4-yl)methyl)pyrrolidin-3-yl)thio)-7-oxo-1-azabicyclo[3.2.0]hept-2-ene-2-carboxylic acid] | 8 to 32 | < 1 | 8 to 32 | 1 to 4 |
| C[C@@H](O)[C@H]1C(=O)N2C(C(=O)O)=C(S[C@@H]3CCN([C@H]4CC[C@@H](N)CC4)C3)[C@H](C)[C@H]12 [Example 23, (4R,5S,6S)-3-(((R)-1-((1r,4R)-4-aminocyclohexyl)pyrrolidin-3-yl)thio)-6-((R)-1-hydroxyethyl)-4-methyl-7-oxo-1-azabicyclo[3.2.0]hept-2-ene-2-carboxylic acid] | 8 to 32 | < 1 | 1 to 4 | 1 to 4 |
| C[C@@H](O)[C@H]1C(=O)N2C(C(=O)O)=C(S[C@@H]3CCN(CC4CCNC(CN)C4)C3)[C@H](C)[C@H]12 (stereo partly drawn) [Example 30, (4R,5S,6S)-3-(((3R)-1-((2-(aminomethyl)piperidin-4-yl)methyl)pyrrolidin-3-yl)thio)-6-((R)-1-hydroxyethyl)-4-methyl-7-oxo-1-azabicyclo[3.2.0]hept-2-ene-2-carboxylic acid] | 8 to 32 | < 1 | 8 to 32 | 1 to 4 |
| C[C@@H](O)[C@H]1C(=O)N2C(C(=O)O)=C(S[C@@H]3CCN(C[C@H]4CC[C@H](CN)CC4)C3)[C@H](C)[C@H]12 [Example 17, (4R,5S,6S)-3-(((R)-1-(((1r,4R)-4-(aminomethyl)cyclohexyl)methyl)pyrrolidin-3-yl)thio)-6-((R)-1-hydroxyethyl)-4-methyl-7-oxo-1-azabicyclo[3.2.0]hept-2-ene-2-carboxylic acid] | 8 to 32 | < 1 | 1 to 4 | 1 to 4 |
| C[C@@H](O)[C@H]1C(=O)N2C(C(=O)O)=C(S[C@@H]3CCN(CCN4CCNCC4)C3)[C@H](C)[C@H]12 [Example 20, (4R,5S,6S)-6-((R)-1-hydroxyethyl)-4-methyl-7-oxo-3-(((R)-1-(2-(piperazin-1-yl)ethyl)pyrrolidin-3-yl)thio)-1-azabicyclo[3.2.0]hept-2-ene-2-carboxylic acid] | 8 to 32 | < 1 | 1 to 4 | 1 to 4 |

Second part, the molecule after the results:

| MIC [1] [µg/mL] | MIC [2] [µg/mL] | MIC [3] [µg/mL] | MIC [4] [µg/mL] | Structure (SMILES) |
| --- | --- | --- | --- | --- |
| 8 to 32 | < 1 | 8 to 32 | 1 to 4 | CC(C1CCNCC1)N1CC[C@@H](SC2=C(C(=O)O)N3C(=O)[C@H]([C@@H](C)O)[C@H]3[C@H]2C)C1 (stereo partly drawn) [Example 25, (4R,5S,6S)-6-((R)-1-hydroxyethyl)-4-methyl-7-oxo-3-(((3R)-1-(1-(piperidin-4-yl)ethyl)pyrrolidin-3-yl)thio)-1-azabicyclo[3.2.0]hept-2-ene-2-carboxylic acid] |
| 8 to 32 | 8 to 32 | 8 to 32 | 8 to 32 | C[C@@H](O)[C@H]1C(=O)N2C(C(=O)O)=C(S[C@@H]3CCN(CC4CNCCN4S(C)(=O)=O)C3)[C@H](C)[C@H]12 (stereo partly drawn) [Example 32, (4R,5S,6S)-6-((R)-1-hydroxyethyl)-4-methyl-3-(((3R)-1-((1-(methylsulfonyl)piperazin-2-yl)methyl)pyrrolidin-3-yl)thio)-7-oxo-1-azabicyclo[3.2.0]hept-2-ene-2-carboxylic acid] |
| 8 to 32 | < 1 | 1 to 4 | 1 to 4 | C[C@@H](O)[C@H]1C(=O)N2C(C(=O)[O-])=C(S[C@@H]3CC[N+](C)(CC4CCNCC4)C3)[C@H](C)[C@H]12 (stereo partly drawn) [Example 33, (4R,5S,6S)-6-((R)-1-hydroxyethyl)-4-methyl-3-(((3R)-1-methyl-1-(piperidin-4-ylmethyl)pyrrolidin-1-ium-3-yl)thio)-7-oxo-1-azabicyclo[3.2.0]hept-2-ene-2-carboxylate] |
| 8 to 32 | < 1 | 1 to 4 | 1 to 4 | CN[C@H]1CC[C@H](CN2CC[C@@H](SC3=C(C(=O)O)N4C(=O)[C@H]([C@@H](C)O)[C@H]4[C@H]3C)C2)CC1 [Example 21, (4R,5S,6S)-6-((R)-1-hydroxyethyl)-4-methyl-3-(((R)-1-(((1r,4R)-4-(methylamino)cyclohexyl)methyl)pyrrolidin-3-yl)thio)-7-oxo-1-azabicyclo[3.2.0]hept-2-ene-2-carboxylic acid] |

— patent US12084445B2, “Broad-spectrum carbapenems” (VenatoRx Pharmaceuticals, Inc., priority 2018, dated 2024)
